The results in this text go back to paper PMC6271228, “Diethyl 2-(Phenylcarbamoyl)phenyl Phosphorothioates: Synthesis, Antimycobacterial Activity and Cholinesterase Inhibition” (Molecules, 2014).

Assay [1] deals with M. kansasii 6509/96 (clinically isolated). The assay is described as follows: microbe, parasite or virus in culture. In kind it is cell-based. The settings on record: Mycobacterium kansasii, 37 °C.
The next assay deals with T1, AChE from electric eel (Electrophorus electricus, UniProt O42275).
T1 construct: Acetylcholinesterase was obtained from electric eel (Electrophorus electricus L.); from tissue; host or cells: electric eel (Electrophorus electricus L.)
The assay is described as follows: AChE inhibition, modified Ellman's method. In kind it is biochemical, Electrophorus electricus L. An excerpt:
(§1) The ability of the tested compounds to inhibit AChE from electric eel (Electrophorus electricus L.) and BChE from equine serum was screened in vitro using modified Ellman’s method for the evaluation of cholinesterase activity. […] […]. These two standards were chosen due to their different structures. […]. The choice of these drugs with different mechanism of action can provide relevant results. All tested compounds expressed a good inhibitory activity with IC50s in low micromolar values.
(§2) The IC50 values were determined using the spectrophotometric Ellman’s method, which is a simple, rapid and direct method to determine the SH and -S-S- group content in proteins. This method is widely used for cholinesterase activity evaluation and screening of the efficiency of cholinesterase inhibitors. Cholinesterase activity is measured indirectly by quantifying the concentration of 5-thio-2-nitrobenzoic acid (TNB) ion formed in the reaction between the thiol reagent 5,5'-dithiobis-2-nitrobenzoic acid (DTNB) and thiocholine, a product of substrate hydrolysis by cholinesterase (i.e., acetylthiocholine, ATCh). All the tested compounds were dissolved in dimethyl sulfoxide (concentration 0.01 M) and then diluted in demineralised water (concentration 0.001 M and 0.0001 M). The Ellman’s method is slightly modified according to Zdrazilova et al.. Acetylcholinesterase was obtained from electric eel (Electrophorus electricus L.) and butyrylcholinesterase from equine serum.

A further assay relates to M. kansasii My 235/80. Nature of the assay: microbe, parasite or virus in culture. In kind it is cell-based, Mycobacterium kansasii. The settings on record: Mycobacterium kansasii, 37 °C.
In assay [2] the test system is Mycobacterium tuberculosis My 331/88 (H37Rv). The assay is described as follows: microbe, parasite or virus in culture. In kind it is cell-based.
Another assay relates to M. avium My 330/88. Nature of the assay: microbe, parasite or virus in culture. In kind it is cell-based, Mycobacterium avium. The settings on record: Mycobacterium avium, 37 °C.
A further assay addresses T2, BChE from equine serum (Equus caballus, UniProt P81908).
T2 construct: butyrylcholinesterase from equine serum; from tissue; host or cells: equine serum
The assay is described as follows: BChE inhibition, modified Ellman's method. It counts as biochemical.
From the text: as §1, §2
(In general: In Ellman's method for cholinesterases, released thiocholine reacts with DTNB.)

Setting [3] is: 168 h, 7 d, read-out: MIC M. kansasii 6509/96 7 d.
Setting [4] is: 336 h, 14 d, read-out: MIC M. kansasii 6509/96 14 d.
The mark [5] stands for this setting: 504 h, 21 d, read-out: MIC M. kansasii 6509/96 21 d.
Where [6] appears, read: MY235/80, 168 h, 7 d, read-out: MIC M. kansasii 235/80 7 d.
The mark [7] stands for this setting: MY235/80, 336 h, 14 d, read-out: MIC M. kansasii 235/80 14 d.
[8] abbreviates: MY235/80, 504 h, 21 d, read-out: MIC M. kansasii 235/80 21 d.
Setting [9] is: 336 h, 14 d, 37 °C, read-out: MIC Mtb 331/88 (H37Rv) 14 d.
Where [10] appears, read: 504 h, 21 d, 37 °C, read-out: MIC Mtb 331/88 (H37Rv) 21 d.
The mark [11] stands for this setting: MY330/88, 336 h, 14 d, read-out: MIC M. avium 330/88 14 d.
Where [12] appears, read: MY330/88, 504 h, 21 d, read-out: MIC M. avium 330/88 21 d.

Converted amounts (≈) assume the structure as drawn. Like-named read-outs stand apart in the source and are kept apart here.

T2 sequence (P81908 whole entry): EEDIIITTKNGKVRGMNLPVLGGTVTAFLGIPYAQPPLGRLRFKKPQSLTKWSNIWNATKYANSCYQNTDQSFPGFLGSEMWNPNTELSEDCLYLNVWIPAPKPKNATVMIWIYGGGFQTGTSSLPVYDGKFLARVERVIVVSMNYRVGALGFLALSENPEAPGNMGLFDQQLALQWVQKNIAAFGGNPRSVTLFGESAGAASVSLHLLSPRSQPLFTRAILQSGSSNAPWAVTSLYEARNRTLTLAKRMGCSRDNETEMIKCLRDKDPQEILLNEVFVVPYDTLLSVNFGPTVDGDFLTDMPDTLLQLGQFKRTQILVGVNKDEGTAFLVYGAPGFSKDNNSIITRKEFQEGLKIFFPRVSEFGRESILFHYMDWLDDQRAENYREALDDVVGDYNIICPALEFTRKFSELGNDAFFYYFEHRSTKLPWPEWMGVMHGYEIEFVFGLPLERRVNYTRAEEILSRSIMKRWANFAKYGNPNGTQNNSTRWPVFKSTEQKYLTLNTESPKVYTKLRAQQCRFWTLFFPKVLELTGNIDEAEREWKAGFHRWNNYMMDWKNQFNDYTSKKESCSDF
T1 sequence (O42275 24-633): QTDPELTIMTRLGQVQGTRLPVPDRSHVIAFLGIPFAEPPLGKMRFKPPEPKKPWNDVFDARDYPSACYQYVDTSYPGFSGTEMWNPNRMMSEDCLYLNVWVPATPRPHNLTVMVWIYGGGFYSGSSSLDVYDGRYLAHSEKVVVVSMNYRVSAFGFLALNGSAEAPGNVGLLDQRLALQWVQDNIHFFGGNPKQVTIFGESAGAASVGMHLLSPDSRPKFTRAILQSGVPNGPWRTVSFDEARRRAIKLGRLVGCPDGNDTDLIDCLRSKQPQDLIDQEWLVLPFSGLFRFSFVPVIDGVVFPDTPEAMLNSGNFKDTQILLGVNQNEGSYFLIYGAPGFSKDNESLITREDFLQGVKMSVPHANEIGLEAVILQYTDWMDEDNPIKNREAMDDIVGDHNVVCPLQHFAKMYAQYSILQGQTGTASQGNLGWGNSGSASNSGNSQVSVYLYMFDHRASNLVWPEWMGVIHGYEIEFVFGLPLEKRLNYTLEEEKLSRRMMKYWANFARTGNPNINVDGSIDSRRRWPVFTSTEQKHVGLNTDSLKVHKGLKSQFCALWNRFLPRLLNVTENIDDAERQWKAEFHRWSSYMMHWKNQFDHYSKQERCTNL

The IC50 is the concentration needed to halve the response being measured. Read a high IC50 as weaker potency. With `CCOP(=S)(OCC)Oc1ccc(Cl)cc1C(=O)Nc1cccc(F)c1` [1o, O-{4-Chloro-2-[(3-fluorophenyl)carbamoyl]phenyl} O,O-diethyl phosphorothioate], the MIC in assay [1] (setting [3]) was 250 µM (≈ 104 µg/mL); in assay [1] (setting [4]), 500 µM (≈ 209 µg/mL); in assay [1] (setting [5]), 500 µM (≈ 209 µg/mL); in the assay on M. kansasii My 235/80 (setting [6]), 250 µM (≈ 104 µg/mL); in the assay on M. kansasii My 235/80 (setting [7]), 500 µM (≈ 209 µg/mL); in the assay on M. kansasii My 235/80 (setting [8]), over 500 µM. Moreover, the MIC in assay [2] (setting [9]) was 32 µM (≈ 13.4 µg/mL); in assay [2] (setting [10]), 32 µM (≈ 13.4 µg/mL); with M. avium My 330/88 (setting [11]), 500 µM (≈ 209 µg/mL); with M. avium My 330/88 (setting [12]), 500 µM (≈ 209 µg/mL). The IC50 was found to be 9.94 ± 0.2 µM against AChE from electric eel and 11.8 ± 0.6 µM against BChE from equine serum.

For `CCOP(=S)(OCC)Oc1cc(Cl)ccc1C(=O)Nc1ccc(Cl)c(Cl)c1` [1u, O-{5-Chloro-2-[(3,4-dichlorophenyl)carbamoyl]phenyl} O,O-diethyl phosphorothioate], the MIC in assay [1] (setting [3]) came out at 32 µM (≈ 15 µg/mL); in assay [1] (setting [4]) it was 62.5 µM (≈ 29.3 µg/mL); in assay [1] (setting [5]), 62.5 µM (≈ 29.3 µg/mL); with M. kansasii My 235/80 (setting [6]), 32 µM (≈ 15 µg/mL); in the assay with M. kansasii My 235/80 (setting [7]), 32 µM (≈ 15 µg/mL); in the assay with M. kansasii My 235/80 (setting [8]) it was 32 µM (≈ 15 µg/mL). The MIC in assay [2] (setting [9]) was 16 µM (≈ 7.5 µg/mL); in assay [2] (setting [10]) it was 16 µM (≈ 7.5 µg/mL); in the assay on M. avium My 330/88 (setting [11]), over 500 µM; in the assay on M. avium My 330/88 (setting [12]) it was over 500 µM. The IC50 turned out to be 9.56 ± 0.21 µM on AChE from electric eel and 14.7 ± 0.2 µM at BChE from equine serum.

In the case of `CCOP(=S)(OCC)Oc1ccc(Cl)cc1C(=O)Nc1ccc(Br)cc1` [1n, O-{2-[(4-Bromophenyl)carbamoyl]-4-chlorophenyl} O,O-diethyl phosphorothioate], the MIC in assay [1] (setting [3]) is 250 µM (≈ 120 µg/mL); in assay [1] (setting [4]), 500 µM (≈ 239 µg/mL); in assay [1] (setting [5]) it was 500 µM (≈ 239 µg/mL); in the assay with M. kansasii My 235/80 (setting [6]), 250 µM (≈ 120 µg/mL); with M. kansasii My 235/80 (setting [7]), 500 µM (≈ 239 µg/mL); with M. kansasii My 235/80 (setting [8]), 500 µM (≈ 239 µg/mL). Also, the MIC in assay [2] (setting [9]) came to 32 µM (≈ 15.3 µg/mL); in assay [2] (setting [10]), 32 µM (≈ 15.3 µg/mL); with M. avium My 330/88 (setting [11]), 500 µM (≈ 239 µg/mL); in the assay with M. avium My 330/88 (setting [12]) it was 500 µM (≈ 239 µg/mL). The values for the IC50 on AChE from electric eel and on BChE from equine serum were 9.32 ± 0.06 µM and 15.1 ± 0.1 µM, respectively.

For `CCOP(=S)(OCC)Oc1ccc(Br)cc1C(=O)Nc1ccc(F)cc1` [1g, O-{4-Bromo-2-[(4-fluorophenyl)carbamoyl]phenyl} O,O-diethyl phosphorothioate], the MIC in assay [1] (setting [3]) was 125 µM (≈ 57.8 µg/mL); in assay [1] (setting [4]), 250 µM (≈ 116 µg/mL); in assay [1] (setting [5]), 250 µM (≈ 116 µg/mL); in the assay with M. kansasii My 235/80 (setting [6]) it was 125 µM (≈ 57.8 µg/mL); in the assay with M. kansasii My 235/80 (setting [7]) it was 500 µM (≈ 231 µg/mL); in the assay with M. kansasii My 235/80 (setting [8]) it was over 500 µM. Also, the MIC was 32 µM (≈ 14.8 µg/mL) in assay [2] (setting [9]), 32 µM (≈ 14.8 µg/mL) in assay [2] (setting [10]), 500 µM (≈ 231 µg/mL) in the assay on M. avium My 330/88 (setting [11]) and over 500 µM in the assay with M. avium My 330/88 (setting [12]). The IC50 on AChE from electric eel is 12.4 ± 0.05 µM; on BChE from equine serum, 12.6 ± 0.3 µM.

As for `CCOP(=S)(OCC)Oc1ccc(Cl)cc1C(=O)Nc1ccc(Cl)c(Cl)c1` [1l, O-{4-Chloro-2-[(3,4-dichlorophenyl)carbamoyl]phenyl} O,O-diethyl phosphorothioate], the MIC in assay [1] (setting [3]) was 125 µM (≈ 58.6 µg/mL); in assay [1] (setting [4]), 250 µM (≈ 117 µg/mL); in assay [1] (setting [5]) it was 250 µM (≈ 117 µg/mL); in the assay on M. kansasii My 235/80 (setting [6]), 125 µM (≈ 58.6 µg/mL); in the assay with M. kansasii My 235/80 (setting [7]) it was 250 µM (≈ 117 µg/mL); in the assay on M. kansasii My 235/80 (setting [8]) it was 500 µM (≈ 234 µg/mL). Further, the MIC in assay [2] (setting [9]) was 8 µM (≈ 3.75 µg/mL); in assay [2] (setting [10]) it was 8 µM (≈ 3.75 µg/mL); in assay [2] (read-out: MIC against Mtb), 8 µM (≈ 3.75 µg/mL); with M. avium My 330/88 (setting [11]), over 500 µM; in the assay on M. avium My 330/88 (setting [12]) it was over 500 µM. Moreover, the values for the IC50 at AChE from electric eel and at BChE from equine serum were 9.33 ± 0.11 µM and 17.4 ± 0.5 µM, respectively.

Consider `Nc1ccc(C(=O)O)c(O)c1` [PAS, para-aminosalicylic acid, reference compound], for which the MIC in assay [1] (setting [3]) was 32 µM (≈ 4.9 µg/mL); in assay [1] (setting [4]), 125 µM (≈ 19.1 µg/mL); in assay [1] (setting [5]), 500 µM (≈ 76.6 µg/mL); in the assay with M. kansasii My 235/80 (setting [6]), 125 µM (≈ 19.1 µg/mL); with M. kansasii My 235/80 (setting [7]), 1000 µM (≈ 153 µg/mL); in the assay on M. kansasii My 235/80 (setting [8]), over 1000 µM. Moreover, the MIC in assay [2] (setting [9]) turned out to be 62.5 µM (≈ 9.57 µg/mL); in assay [2] (setting [10]), 62.5 µM (≈ 9.57 µg/mL); in the assay on M. avium My 330/88 (setting [11]) it was 32 µM (≈ 4.9 µg/mL); in the assay with M. avium My 330/88 (setting [12]), 125 µM (≈ 19.1 µg/mL).
